# Measured values as given in patent US6610721B2, “Imidazo heterocyclic compounds” (Novo Nordisk A/S, priority 2000, dated 2003).
# Where a name gives a salt, the structure may show the parent alone.
row,Structure (SMILES),melting point
1,"FC(F)(F)Oc1ccc(OCC2CCCc3[nH]cnc32)cc1 (centres unmarked) (as salt: hydrochloride) [Example 58, 4-(4-Trifluoromethoxyphenoxymethyl)-4,5,6,7-tetrahydro-1H-benzimidazole, Hydrochloride]",202 to 209 °C
2,Clc1ccc(OCC2CCCc3[nH]cnc32)cc1 (centres unmarked) (as salt: hydrochloride),210 to 212 °C
3,N#Cc1ccc(OCC2CCCc3[nH]cnc32)c(Cl)c1 (centres unmarked) (as salt: hydrochloride),225 to 227 °C
4,FC(F)(F)c1ccc(OCC2CCCc3[nH]cnc32)cc1 (centres unmarked) (as salt: hydrochloride),242 to 244 °C
5,Cl.Clc1ccccc1OCC1CCCc2[nH]cnc21 (centres unmarked),207 to 209 °C
6,"O=C(c1ccc(OCC2CCCc3[nH]cnc32)cc1)C1CC1 (centres unmarked) (as salt: hydrochloride) [Example 63, Cyclopropyl-[4-(4,5,6,7-tetrahydro-1H-benzimidazol-4-ylmethoxy)phenyl]methanone, hydrochloride]",211 to 213 °C

# Next, values leading:
row,melting point,Structure (SMILES)
1,237 to 240 °C,O=C1CCCc2c(OCC3CCCc4[nH]cnc43)cccc21 (centres unmarked) (as salt: hydrochloride)
2,224 to 226 °C,Cl.Clc1ccccc1OCC1CCc2[nH]cnc2C1 (centres unmarked)
3,232 to 235 °C,"N#Cc1ccc(OCC2CCCCc3[nH]cnc32)cc1 (centres unmarked) (as salt: hydrochloride) [Example 57, 4-(1,4,5,6,7,8-Hexahydrocycloheptaimidazol-4-ylmethoxy)benzonitrile, Hydrochloride]"
4,192 to 194 °C,Cl.Fc1ccccc1OCC1CCc2[nH]cnc2C1 (centres unmarked)
5,165 to 167 °C,Cl.c1ccc(-c2cccc(OCC3CCc4[nH]cnc4C3)c2)cc1 (centres unmarked)
6,193 to 195 °C,COc1cc(C#N)ccc1OCC1CCCc2[nH]cnc21 (centres unmarked) (as salt: hydrochloride)
7,190 to 192 °C,Cc1cc(C#N)cc(C)c1OCC1CCCc2[nH]cnc21 (centres unmarked) (as salt: hydrochloride)
8,170 to 171 °C,Cl.FC(F)(F)Oc1cccc(OCC2CCc3[nH]cnc3C2)c1 (centres unmarked)
